Assay results reported in ChEMBL document CHEMBL1147222, “Lowdenic acid: a new antifungal polyketide-derived metabolite from a new fungicolous Verticillium sp” (2003).
Converted amounts (≈) assume the structure as drawn.

How the values were obtained:
Type in all cases: functional
[1] = test system: Aspergillus flavus; assay: Antifungal activity against Aspergillus flavus NRRL 6541 at 250 ug/disk; details: read-out: IZ
[2] = test system: Aspergillus flavus; assay: Antifungal activity against Aspergillus flavus NRRL 6541
[3] = test system: Staphylococcus aureus; assay: Antibacterial activity against Staphylococcus aureus ATCC 29213 at 200 ug/disk by standard disk assay; details: read-out: IZ
[4] = test system: Candida albicans; assay: Antifungal activity against Candida albicans ATCC 90029 at 200 ug/disk by standard disk assay; details: read-out: IZ
[5] = test system: Bacillus subtilis; assay: Antibacterial activity against Bacillus subtilis ATCC 6051 at 200 ug/disk by standard disk assay; details: read-out: IZ

MIC [2]: 6 µg/mL (≈ 13.4 µM)
Compound: CCCCCCCCCC[C@@H](C)CCC[C@@]1(C)C=C/C(=C2/C(=O)O[C@H](CC(=O)O)C2=O)O1 [LOWDENIC ACID]
zone of inhibition at 250 µg/disc [1]: 14 mm
zone of inhibition at 200 µg/disc [3]: 12 mm
zone of inhibition at 200 µg/disc [4]: 9 mm
zone of inhibition at 200 µg/disc [5]: 17 mm
